Results: the supplement of paper PMC9386025

Legend:
Assay in all cases: drug sensitivity score (DSS) (DSS (dimensionless)); higher = more sensitive (stronger drug response)
OVSAHO = system: OVSAHO
Procedure, shortened: (§1)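 Ovarian cancer cell lines, with shRNA induced by 100 ng/ml doxycycline for at least three days, and patient-derived cultures were seeded at 1 000 – 1 500 cells per well in 384-well plates holding drugs pre-plated in five concentrations over a 10,000-fold range. After three days at 37 °C and 5.0 % CO2, viability was read as CellTiter-Glo luminescence on a PHERAstar FS. Each drug's dose-response curve was summarised as a drug sensitivity score calculated as previously described.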

JHOS2 = system: JHOS2
Procedure, shortened: as §1

FIMM-PDC7 = patient-derived ovarian cancer cells; details: genetic perturbation: none (patient-derived cell culture)
Procedure, shortened: as §1

FIMM-PDC6 = patient-derived ovarian cancer cells; details: genetic perturbation: none (patient-derived cell culture)
Procedure, shortened: as §1

Kuramochi = system: Kuramochi
Procedure, shortened: as §1

FIMM-PDC4 = patient-derived ovarian cancer cells; details: genetic perturbation: none (patient-derived cell culture)
Procedure, shortened: as §1

FIMM-PDC5 = patient-derived ovarian cancer cells; details: genetic perturbation: none (patient-derived cell culture)
Procedure, shortened: as §1

FIMM-PDC1 = patient-derived ovarian cancer cells; details: genetic perturbation: none (patient-derived cell culture)
Procedure, shortened: as §1

FIMM-PDC3 = patient-derived ovarian cancer cells; details: genetic perturbation: none (patient-derived cell culture)
Procedure, shortened: as §1

[1] = genetic perturbation: DOX-induced PTK7 shRNA knockdown
[2] = genetic perturbation: DOX-induced control shRNA

Row | Compound | drug sensitivity score (OVSAHO; [1]) | drug sensitivity score (OVSAHO; [2]) | drug sensitivity score (JHOS2; [1]) | drug sensitivity score (JHOS2; [2]) | drug sensitivity score (FIMM-PDC7) | drug sensitivity score (FIMM-PDC6) | drug sensitivity score (Kuramochi; [1]) | drug sensitivity score (Kuramochi; [2]) | drug sensitivity score (FIMM-PDC4) | drug sensitivity score (FIMM-PDC5) | drug sensitivity score (FIMM-PDC1) | drug sensitivity score (FIMM-PDC3)
1 | CC(=O)[C@]1(O)Cc2c(O)c3c(c(O)c2[C@@H](O[C@H]2C[C@H](N)[C@H](O)[C@H](C)O2)C1)C(=O)c1ccccc1C3=O [Idarubicin] | 6.8 | 4.8 | 7.2 | 6.9 | 8.8 | 5.7 | 5.75 | 6 | 8.2 | 8.7 | 5.1 | 8.1
2 | COc1cc(C(=O)O)ccc1NC(=O)[C@@H]1N[C@@H](CC(C)(C)C)[C@](C#N)(c2ccc(Cl)cc2F)[C@H]1c1cccc(Cl)c1F [Idasanutlin] | 1.1 | < 0 | < 0 | < 0 | 15.7 | 15.6 | 0.95 | < 0 | 5 | 22.5 | 0.5 | 5.2
3 | O=C(Nc1ccncc1)C(=O)c1cn(Cc2ccc(Cl)cc2)c2ccccc12 [Indibulin] | 6.9 | 2.2 | 6.4 | 4.5 | 4.2 | 6.5 | 5.8 | < 0 | 8.8 | 13.9 | 8.6 | 6
4 | CC(C)NC[C@@H](C(=O)N1CCN(c2ncnc3c2[C@H](C)C[C@H]3O)CC1)c1ccc(Cl)cc1 [Ipatasertib] | < 0 | 4.6 | < 0 | 1.3 | 7.5 | 5.5 | 0.35 | < 0 | 5.9 | 10.3 | 4.2 | 0.8
5 | CC(C)C[C@H](NC(=O)CNC(=O)c1cc(Cl)ccc1Cl)B(O)O [Ixazomib] | 5.1 | 2 | 13.5 | 7.8 | 16.8 | 19.2 | 3.55 | 5 | 13.8 | 12 | 13.6 | 17.1
6 | CCNCCS(=O)(=O)NC[C@@]1(c2ccccc2)SC(NC(=O)C(C)(C)C)=NN1C(=O)C(C)(C)C [Litronesib] | 8.2 | 9.3 | 8.5 | 7.7 | 4.3 | 2.8 | 10.7 | 3.1 | 15.2 | 21.2 | 7.8 | 11.2
7 | NC(=O)N1CCC(CC(=O)N2CCC([C@H]3c4ncc(Br)cc4CCc4cc(Cl)cc(Br)c43)CC2)CC1 [Lonafarnib] | 9.4 | 9.9 | 5.5 | 9 | 10 | 9.8 | 8.85 | 8.7 | 6.3 | 7 | 9.45 | 9.3
8 | CCNC(=O)c1noc(-c2cc(C(C)C)c(O)cc2O)c1-c1ccc(CN2CCOCC2)cc1 [Luminespib] | < 0 | 11.3 | 15.6 | 12.9 | 19 | 15.3 | 13.7 | 4.1 | 26 | 22.8 | 13.9 | 14.5
9 | O=C(Nc1cccc(NC(=O)c2cccc(O)c2O)c1)c1cccc(O)c1O [MST-312] | 9.6 | 6.9 | 11.6 | 11.5 | < 0 | 3.3 | 6.05 | 8.6 | 6.7 | 3.7 | 2.9 | 9
10 | CCN(CC)CCCC(C)Nc1c2ccc(Cl)cc2nc2ccc(OC)cc12 (centres undefined) [Mepacrine] | 15.2 | 11.7 | 18.8 | 12.1 | 12.3 | 15.9 | 12.7 | 10.8 | 17.1 | 18 | 13.6 | 13.8
11 | S=c1[nH]cnc2nc[nH]c12 [Mercaptopurine] | 0.9 | 7.3 | 0.1 | < 0 | < 0 | < 0 | 6.45 | 6.8 | < 0 | 2 | 3.75 | < 0
12 | CN(Cc1cnc2nc(N)nc(N)c2n1)c1ccc(C(=O)N[C@@H](CCC(=O)O)C(=O)O)cc1 [Methotrexate] | < 0 | 4.6 | < 0 | < 0 | < 0 | < 0 | 0.45 | 1.5 | < 0 | < 0 | 2.2 | < 0
13 | CO[C@@H]1[C@H](N(C)C(=O)c2ccccc2)C[C@H]2O[C@]1(C)n1c3ccccc3c3c4c(c5c6ccccc6n2c5c31)C(=O)NC4 [Midostaurin] | 13.1 | 7.9 | 13.1 | 10.7 | 10.3 | 7.8 | 9 | 8.9 | 15.7 | 17.8 | 8.1 | 5.5
14 | CNC(=O)c1nn(C)c2c1C(C)(C)Cc1cnc(Nc3ccc(N4CCN(C)CC4)cc3)nc1-2 [Milciclib] | 8.1 | 9 | 6.3 | 12.4 | 7.9 | 9.1 | 10.3 | 8 | 8.2 | 10.9 | 12.7 | 9.9
15 | CCCCCCCCCCCCCCCCOP(=O)([O-])OCC[N+](C)(C)C [Miltefosine] | 5.9 | 3.6 | 13 | 5.2 | 8.1 | 10.2 | 4.9 | 4.9 | 6.6 | 10.6 | 2.55 | 5.7
16 | O=C1c2c(O)ccc(O)c2C(=O)c2c(NCCNCCO)ccc(NCCNCCO)c21 [Mitoxantrone] | 5.1 | 3.8 | 5.5 | 7.6 | 3.4 | 4.8 | 2.7 | 2.7 | 5.1 | 6.6 | 4.55 | 6.9
17 | CCS(=O)(=O)Nc1ccc(Oc2ccc(F)cc2F)c(-c2cn(C)c(=O)c3[nH]ccc23)c1 [Mivebresib] | 19.7 | 23.8 | 18.2 | 16.6 | 16.3 | 15.3 | 25.8 | 14.7 | 12.2 | 21.9 | 13.8 | 15.3
